Data reported in patent EP4212633A1 (priority 2022, dated 2023).
pKd: −log10 of the molar value.

Assays:
SARS-CoV-2 pseudoknot = assay: ligand observed fluorescence titrations (binding to the pseudoknot); conditions: for pKd: binding to the pseudoknot structure, Figure 3
pseudoknot RNA [1] = assay: 1H,15N-HSQC NMR experiments (chemical shift perturbation, binding site mapping); parameters: species or system SARS-CoV-2
pseudoknot RNA [2] = assay: inline probing experiments; format: binding, SARS-CoV-2
SARS-CoV-2 = conditions: Wang et al., 2020, Zhang et al.; cited from earlier work
COVID-19 = conditions: Cao et al., 2020; cited from earlier work
[3] = at higher concentrations; Borba et al., 2020; cited from earlier work

COc1ccc(-c2cc(-c3ccncc3)nc(N3C[C@H](N)C[C@H](N)C3)n2)cc1 [D01+DAP, (3R,5S)-1-(4-(4-methoxyphenyl)-6-(pyridin-4-yl)pyrimidin-2-yl)piperidine-3,5-diamine]
pKd (SARS-CoV-2 pseudoknot): 6.52
binding affinity to the SARS-CoV-2 pseudoknot (ranking among evaluated derivatives) (SARS-CoV-2 pseudoknot; ligand observed fluorescence titrations, Figures 3 and 14): highest binding affinity
binding site from chemical shift perturbation and decreasing signal intensity (pseudoknot RNA [1]; addition of ligand to pseudoknot RNA, Figure 4A): confirmed one of the binding hot spots (HS2) as a binding site
interaction in inline probing (pseudoknot RNA [2]; Figure 4B): interaction of D01+DAP and the pseudoknot RNA in the predicted HS1 and the loop region (L2)

NC(=O)c1ncn([C@@H]2O[C@H](CO)[C@@H](O)[C@H]2O)n1 [Ribavirin]
antiviral activity (SARS-CoV-2): two- or three-digit micromolar range

CC(C)(C)OC(=O)Nc1cccn([C@@H](CC2CC2)C(=O)N[C@@H](C[C@@H]2CCNC2=O)C(=O)C(=O)NCc2ccccc2)c1=O [α-ketoamide-Inhibitor 13b]
antiviral activity (SARS-CoV-2): low micromolar range

Cc1cccc(C)c1OCC(=O)N[C@@H](Cc1ccccc1)[C@@H](O)C[C@H](Cc1ccccc1)NC(=O)[C@H](C(C)C)N1CCCNC1=O [lopinavir]
effect in clinical tests (COVID-19): no effect

NC(=O)c1nc(F)cnc1O [favipavir]
antiviral activity (SARS-CoV-2): two- or three-digit micromolar range

CCN(CC)CCCC(C)Nc1ccnc2cc(Cl)ccc12 (stereo not drawn) [chloroquine]
side-effects [3]: heart arrhythmia

Cc1ccc(C)n1CCC(=O)Nc1ccc2nc[nH]c(=O)c2c1 [D05, 3-(2,5-dimethyl-1H-pyrrol-1-yl)-N-(4-oxo-3,4-dihydroquinazolin-6-yl)propanamide]
pKd (SARS-CoV-2 pseudoknot): 3.85
interactions with the RNA in NMR experiments (pseudoknot RNA [1]): showed interactions with the RNA
interactions with the RNA in in-line probing experiments (pseudoknot RNA [2]): showed interactions with the RNA
